Experimental data: patent US6730334B2, “Multi-arm block copolymers as drug delivery vehicles” (Nektar Therapeutics AL, Corporation, priority 2001, dated 2004)
Converted amounts (≈) assume the structure as drawn.

Legend:
[1] = Solubility of drugs in plain buffer and in PPO-PEG multi-arm block copolymer 10050 formulation; assay type: physicochemical; conditions: thermodynamic from solid; for solubility at 2 h: aqueous with cosolvent or surfactant or cyclodextrin, 50 mg PPO-PEG block copolymer 10050/drug formulation, 10 wt. % drug loading, in 1 ml phosphate buffer 0.1 M pH 7.4, 0.2 μm filtered; for solubility: aqueous buffer, phosphate buffer, 0.1 M, pH 7.4, read-out: Solubility of Drug in Plain Buffer
Description: After two hours of mixing, the mixture was filtered through 0.2 μm syringe filter. The drug concentration in the filtrate was determined by HPLC or UV using a standard curve.

[2] = Drug concentration by HPLC in drug-loaded 8-arm-PCL-PEG26kDa solution; assay type: physicochemical; conditions: 6 mg drug + 60 mg 8-arm-PCL-PEG26kDa (1/10) in 1 ml phosphate buffer 0.1 M pH 7.0, 0.2 μm filtered
Description: (§1) The solution was dried under argon. The dried solid was heated at 55° C. for two hours under argon. The melt was then cooled to room temperature, placed under vacuum overnight, and reduced to small particles. To the particles was added 1 ml of phosphate buffer (0.1 M, pH 7.0), and the resulting mixture was filtered through 0.2 μm syringe filter.
as §1, with “temperature and” for “temperature,”, “7.0). The” for “7.0), and the”

[3] = drug-loaded 8-arm-PCL-PEG26kDa, phosphate buffer 0.1 M pH 7.0, 37° C., rp-HPLC
Description: At timed intervals, 10 μl of sample was withdrawn and diluted with phosphate buffer (0.1 M, pH 7.0). The solution was filtered through 0.2 μm syringe filter.
At timed intervals, 10 μl of sample was withdrawn and diluted with phosphate buffer (0.1 M, pH 7.0). The solution was filtered through 0.2 μm syringe filter. The filtrate was analyzed by rp-HPLC for paclitaxel concentration.

Row | solubility at 2 h [1] | solubility [1] | Drug concentration by HPLC [2] | SMILES | Soluble drug concentration in solution vs. time (FIGS. 8, 9) [3]
1 | 12000 µg/mL (≈ 59.3 mM) |  |  | CCCC(=O)OCOC(=O)C(C)(C)C [Pivaloyloxymethyl butyrate, pivaloyloxymethyl butyrate] | 
2 | 2000 µg/mL (≈ 2.34 mM) | < 1 µg/mL | above 4.5 mg/ml | CC(=O)O[C@H]1C(=O)[C@@]2(C)[C@H]([C@H](OC(=O)c3ccccc3)[C@]3(O)C[C@H](OC(=O)[C@H](O)[C@@H](NC(=O)c4ccccc4)c4ccccc4)C(C)=C1C3(C)C)[C@]1(OC(C)=O)CO[C@@H]1C[C@@H]2O [Paclitaxel, paclitaxel] | retain the paclitaxel in solution for an extended period of time
3 | 4000 µg/mL (≈ 11.2 mM) | 88 µg/mL (≈ 0.246 mM) |  | COc1ccc2c(c1)c(CC(=O)O)c(C)n2C(=O)c1ccc(Cl)cc1 [Indomethacin, indomethacin] | 

Row | SMILES | solubility at 2 h [1] | solubility [1] | Drug concentration by HPLC [2] | Soluble drug concentration in solution vs. time (FIGS. 8, 9) [3]
4 | Cn1cc(C2=C(c3cn(C)c4cc([N+](=O)[O-])ccc34)C(=O)NC2=O)c2ccc([N+](=O)[O-])cc21 [MNIPD, 3,4-di-[1-methyl 6-nitro-3-indolyl]-1H-pyrrole-2,5-dione] | 2600 µg/mL (≈ 5.84 mM) | < 0.5 µg/mL |  | 
